# Test results taken from paper PMC11329928, “Design, synthesis and structure-activity relationship (SAR) studies of an unusual class of non-cationic fatty amine-tripeptide conjugates as novel synthetic antimicrobial agents” (Frontiers in Pharmacology, 2024).
# Where a name gives a salt, the structure may show the parent alone.
# Experiments:
# Escherichia coli DH10B = assay: Resting-cell viability (CFU) with 0.5 mM EDTA; format: cell-based; design: key to CFU's decay in the presence of 0.5 mM EDTA, Ec (data in parenthesis): (+) CFU, decay ∼1 log-unit; (−) ≤ 0.3 log-units; settings: for Decrease in bacterial viability compared to controls in EDTA-containing buffer, E. coli: 100 µM, 20 mM Tris-HCl pH 7.5, 3 h, 37°C; for CFU's decay in the presence of 0.5 mM EDTA, Ec (data in parenthesis): E. coli DH10B, 100 µM compound, 3 h incubation
# Protocol: (§1) Addition of tested compounds to the culture medium had little or no effect on bacterial growth, even at a concentration of 100 μM (Table 1). Since inactivity could arise from the inability of DICAMs to cross the outer membrane, we next tested their effect on bacterial suspensions in the absence or the presence of 0.5 mM EDTA, an outer membrane permeating agent. A decrease of approximately 90% in bacterial viability was observed after 3 h treatment with DICAM 2 and DICAM 4, compared to controls in EDTA-containing buffer (Supplementary Figure S5). No variations were found with the other compounds tested (Table 1), showing that only DICAMs containing Ala/Asn- Pro -Glu tripeptides were able to access the cell membrane and kill these pathogens when the outer membrane permeability was enhanced.
# (§2) For activity assays on resting cells, bacteria grown to exponential phase (OD600 ≈ 0.3) were centrifuged and washed with 20 mM Tris-HCl (pH 7.5), adjusting the final OD600 to ≈0.6 (≈10^8 CFU/mL) with the same buffer. If required, EDTA (0.5 mM final concentration) was next added and the bacterial suspension was dispensed (225 µL per well) in 96-well plates, and then treated with 100 µM DICAM (25 µL). Samples were incubated at 37°C for 3 h and turbidity measurements were taken at selected intervals, also measuring the decay in cell viability at the end of incubation. Controls with buffer (with and without 1% DMSO), 100 µM DICAM, or 0.5 mM EDTA were run in parallel.
# [1] = system: Pseudomonas aeruginosa PAO1; assay: Resting-cell viability (CFU) with 0.5 mM EDTA; format: cell-based; design: key to CFU's decay in the presence of 0.5 mM EDTA, Pa (data in parenthesis): (+) CFU, decay ∼1 log-unit; (−) ≤ 0.3 log-units; settings: for CFU's decay in the presence of 0.5 mM EDTA, Pa (data in parenthesis): P. aeruginosa PAO1, 100 µM compound, 3 h incubation; for Decrease in bacterial viability compared to controls in EDTA-containing buffer, P. aeruginosa: P. aeruginosa PAO1, 100 µM, 20 mM Tris-HCl pH 7.5, 3 h, 37°C
# Protocol: as §1, §2
# [2] = Calcein release from LUVs; settings: 10 μM DICAM, 25°C; for Permeation of DOPE:POPG:CL (80:15:5) LUVs, result in words: vesicle buffer pH 7.4, calcein release; for Leak of calcein from pure POPG LUVs, result in words: vesicle buffer (10 mM Tris, 140 mM NaCl, 0.5 mM EDTA, pH 7.4), fluorescence 480/550 nm, normalised to 0.025% Triton-X100
# Protocol: LUVs were prepared for calceine liberation assays as described ([Chongsiriwatana and Barron, 2009]). Lipid composition (mole %) of LUVs was: POPG (100), POPG:CL (80:20), POPG:CL:DOPE ([…]), and POPG:CL:GlcDAG (75:5:20). Briefly, the nitrogen-dried lipid mixture was dissolved at 1.25 mM with 100 mM calceine in vesicle buffer (10 mM Tris, 140 mM NaCl, 0.5 mM EDTA, pH 7.4) followed by five thaw-freeze cycles. Calceine-entrapped LUVs were prepared by extrusion through 100 nm polycarbonate membranes (Avanti Polar Lipids). Non-entrapped calceine was separated from LUVs by gel filtration on a Sephacryl® S200-HR column (Sigma). LUVs permeabilization was monitored at 25°C by fluorescence emission at 550 nm (λex = 480 nm) as a function of time in a Fluoromax-4 spectrofluorometer (Horiba, France) using agitation. Signal stabilization of samples (1,500 µL vesicle buffer plus 45 µL LUVs) was recorded for 5 min before 10 µM final DICAM addition, and calcein release was monitored for a maximum of 20 min. After incubation, samples were solubilized in Triton X-100 (0.025%) and the fluorescence signal recorded thereafter was used to normalize the entire data set. Solubilization of DICAM-untreated LUVs in Triton X-100 was used as a positive control. No perturbation was detected in controls containing DMSO.
# S. aureus T = assay: Growth inhibition and bacterial survival at 100 µM (Figure 6); format: cell-based, Staphylococcus aureus; settings: 100 µM compound, BHI, 37°C; for S. aureus T growth, % of controls: five or more hours of incubation, increment in OD600 vs controls
# Protocol: FIGURE 6 Antimicrobial effect of DICAMs active on S. aureus ^T. (A) Growth inhibition after culture challenge at 37°C with 100 μM of compound for 2, 5, and 6.5 h in BHI. Bars represent the percentage of the increment in OD600 for treated samples compared to controls and color goes from light to dark as time increases. “X” represents Ala, Asn, Glu or Orn. (B) Dependence of the kinetics of growth (OD600) (left panel) and bacterial population (right panel) on DICAM 14 dose. Bars in light and dark grey show bacterial populations of the initial inoculum and after incubation (3 and 5 h, respectively). Data shown are the average of three replicates, with error bars indicating the standard deviation of the mean.
# Susceptibility to DICAMs was first tested by growth-inhibition assays at 50 and 100 μM of compound. Briefly, working solutions at 5 mM or 10 mM DICAM in pure DMSO were prepared from DICAM stocks (40 mM in pure DMSO) and diluted with fresh culture medium to 5× the desired final concentration. Aliquots (50 µL) of these solutions were added to 200 µL of bacterium cultures grown to early exponential phase (OD550/600 c. a. 0.15–0.2 in sterile 96-well plates (Cultek, Spain). Incubation continued for 10 h at 37°C and turbidity (OD550/600) values were measured every 20 min to monitor growth and lysis, using a VersaMax microplate reader (Molecular Devices; United Kingdom). Next, the activity dependence on DICAM’s dose was examined by measuring the turbidity of treated and untreated cultures as a function of time. Also, the decay of bacterial viability (CFU/mL) at selected times of treatment was assessed by colony counting on LB-agar or TSA plates after overnight incubation at 37°C. By default, 10 μL of 10-fold serially diluted samples were plated, which set the lower detection limit at 10^2 CFU/mL (10^1 CFU/mL when 100 μL of the undiluted sample was seeded).
molecule,measurement,setting,value
"CCCCCCCCCCCCCCCCCCNC(=O)[C@H](CCC(=O)O)NC(=O)[C@H]1CCCN1C(=O)[C@@H](N)CC(N)=O [DICAM 2, Asn- Pro -Glu-NH-C18H37 ·HCl]","Decrease in bacterial viability compared to controls in EDTA-containing buffer, E. coli",Escherichia coli DH10B,approximately 90%
same,"CFU's decay in the presence of 0.5 mM EDTA, Ec (data in parenthesis)",Escherichia coli DH10B,(+)
same,"CFU's decay in the presence of 0.5 mM EDTA, Pa (data in parenthesis)",[1],(+)
same,"Decrease in bacterial viability compared to controls in EDTA-containing buffer, P. aeruginosa",[1],approximately 90%
same,"Permeation of DOPE:POPG:CL (80:15:5) LUVs, result in words",[2],did not permeate
"CCCCCCCCCCCCCCCCCCNC(=O)[C@H](CCC(=O)O)NC(=O)[C@H]1CCCN1C(=O)[C@H](C)NC(=O)OCc1ccccc1 [DICAM 3, Cbz-Ala- Pro -Glu-NH-C18H37]","CFU's decay in the presence of 0.5 mM EDTA, Ec (data in parenthesis)",Escherichia coli DH10B,(−) ((−) ≤ 0.3 log-units)
same,"CFU's decay in the presence of 0.5 mM EDTA, Pa (data in parenthesis)",[1],(−) ((−) ≤ 0.3 log-units)
"CCCCCCCCCCCCCCCCCCNC(=O)[C@H](CCC(=O)O)NC(=O)[C@H]1CCCN1C(=O)[C@H](C)N [DICAM 4, Ala- Pro -Glu-NH-C18H37 ·HCl]","Decrease in bacterial viability compared to controls in EDTA-containing buffer, E. coli",Escherichia coli DH10B,approximately 90%
same,"CFU's decay in the presence of 0.5 mM EDTA, Ec (data in parenthesis)",Escherichia coli DH10B,(+)
same,"CFU's decay in the presence of 0.5 mM EDTA, Pa (data in parenthesis)",[1],(+)
same,"Decrease in bacterial viability compared to controls in EDTA-containing buffer, P. aeruginosa",[1],approximately 90%
same,"S. aureus T growth, % of controls",S. aureus T,≈ 25 % of controls
same,"Leak of calcein from pure POPG LUVs, result in words",[2],full
same,"Permeation of DOPE:POPG:CL (80:15:5) LUVs, result in words",[2],did not permeate
"CCCCCCCCCCCCCCCCCCNC(=O)[C@H](C)NC(=O)[C@H]1CCCN1C(=O)[C@H](C)N [DICAM 14, Ala- Pro -Ala-NH-C18H37 · HCl]","CFU's decay in the presence of 0.5 mM EDTA, Ec (data in parenthesis)",Escherichia coli DH10B,(−) ((−) ≤ 0.3 log-units)
same,"CFU's decay in the presence of 0.5 mM EDTA, Pa (data in parenthesis)",[1],(−) ((−) ≤ 0.3 log-units)
same,Permanent fall in bacterial survival,"S. aureus T; S. aureus T, 5 h incubation",≈ 85%
"CCCCCCCCCCCCCCCCCCNC(=O)[C@H](CCC(=O)O)NC(=O)[C@H]1CCCN1C(=O)[C@@H](N)CCC(=O)O [DICAM 20, Glu- Pro -Glu-NH-C18H37 · HCl]","Leak of calcein from pure POPG LUVs, result in words",[2],partial
"CCCCCCCCCCCCCCCCCCNC(=O)[C@H](CCC(=O)O)NC(=O)[C@H]1CCCN1C(=O)[C@H](CCCN)NC(=O)OCc1ccccc1 [DICAM 21, Cbz-Orn- Pro -Glu-NH-C18H37]","Permeation of DOPE:POPG:CL (80:15:5) LUVs, result in words",[2],able to permeate and release calcein
"CCCCCCCCCCCCCCCCCCNC(=O)[C@H](CCC(=O)O)NC(=O)[C@H]1CCCN1C(=O)[C@H](C)NC(C)=O [DICAM 24, Ac-Ala- Pro -Glu-NH-C18H37]","CFU's decay in the presence of 0.5 mM EDTA, Ec (data in parenthesis)",Escherichia coli DH10B,(−) ((−) ≤ 0.3 log-units)
Ala - Pro -Glu-NH-C18H37 · HCl [DICAM 23],"S. aureus T growth, % of controls",S. aureus T,≈ 25 % of controls
same,"Leak of calcein from pure POPG LUVs, result in words",[2],full
